Here are results for nine compounds from patent US20220264924A1, “METHODS AND COMPOSITIONS FOR IMPROVED TASTE QUALITY” (ALMENDRA PTE LTD, priority 2019, published 2022).

The test system of data set [1] is human subject (sensory testing). The settings on record: cited from earlier work; for sweetness potency, times higher than sucrose: relative to sucrose (Tanaka 1987; Phillips 1989); for sweetness potency, times more potent than sucrose: sensory evaluations, relative to sucrose (Crammer and Ikan 1986).
For data set [2] the test system is unchanged. Put plainly: Sensory test: taste modulator effect on umami taste of MSG (Example 2). The class given is in vivo. The settings on record: 0-15 scale; average of three trials; MSG 12 mM. The method, then:
(§1) Representative formulations within the scope of the disclosed formulations were prepared and subjected to sensory testing by the methods described above in the section entitled Testing Methodology, where formulations were rated on a 0-15 scales for the Taste Attributes: Umami Intensity (UI), Saltiness Intensity (SaI), Sourness Intensity (SoI), Bitterness Intensity (BI), Astringency Intensity (AI), and Mouthfeel Intensity (MF). In sensory test sessions, the number of samples evaluated was limited to four. In the initial phase of formulation screening, testing was carried out in triplicate with a single subject extensively experienced in the technique of flavor profile analysis.
This study assessed the effect of a disclosed taste modulation formulation on umami taste and other sensory perceptions as described above for the test method, i.e., Umami Intensity (UI), Sourness Intensity (SoI), Saltiness Intensity (SaI), Bitterness Intensity (BI), Mouthfeel Intensity (MF) and Astringency Intensity (AI).
(§2) The sensory protocol was as follows: • 1. Scramble ambient temperature samples so that each test solution is an unknown sample for sensory testing. • 2. Rinse mouth with 15 mL water while swishing vigorously followed by expectoration. • 3. Take 15 mL of the sample into the mouth and swish around vigorously for 15 sec scaling Umami Intensity (U), Sourness Intensity (So), Saltiness Intensity (Sa), Bitterness Intensity (B), Mouthfeel Intensity (MF) and Astringency Intensity (A) on 0-15 scales during this period and recording them in a table. • 4. Expectorate sample, rinse mouth vigorously with 15 mL water and expectorate at 15 sec. • 5. Note any change in sensory perceptions over the next 2 min and record observations in a table. • 6. Rinse mouth with 15 mL water with vigorous agitation in the mouth for 15 sec and expectorate. • 7. Wait a minimum of 15 min and repeat with next sample. • 8. Break sample code to identify samples.
Briefly, a stock solution of 10 mM KCl (746 mg/L)/3 mM MgCl2.6H2O (610 mg/L)/3 mM CaCl2 (333 mg/L) in 1.00 L water was prepared in a 1 L E-flask, stirring to full dissolution. 100 mL portions of the mineral salt solution were then transferred to two 250 mL plastic-capped glass bottles and 100 mL portions of water were added to the other two 250 mL plastic-capped glass bottles. Sample completion was carried out by addition of MSG as follows for Sample Nos. 1-4.
Three independent trials were carried out and the data are summarized below in Table 1, with individual results from each trial and average of the three trials as indicated.

Data set [3] has the same test system. Put plainly: Sensory test: taste modulator effect on mouthfeel with MSG, varied MgCl2/CaCl2 (Example 4). The format is in vivo. The settings on record: 0-15 scale, 12 mM MSG Stock Solution. The method, then:
as §1, §2
This study assessed the effects of a disclosed taste modulation formulation on umami taste and other sensory perceptions as described above for the test method, i.e., Umami Intensity (UI), Sourness Intensity (SoI), Saltiness Intensity (SaI), Bitterness Intensity (BI), Mouthfeel Intensity (MF) and Astringency Intensity (AI).
The sensory protocol was as described above in Example 2.
Briefly, a MSG Stock Solution of 12 mM MSG ([…]) was prepared and 100 mL portions of it were added to four 250 mL plastic-capped glass bottles. Sample preparation was completed as follows:
Eight independent trials were carried out and the average results are summarized below in Table 3.

For data set [4] the test system is unchanged. Briefly: Sweetness Linger of standards in the sensory testing methodology. The format is in vivo. The note with it: perceived sweetness intensity @ 120 sec; standards in water: 10% Sucrose, 500 PPM REBA. The source says: In various aspects, the present disclosure pertains to methods of testing the disclosed sweetener compositions, e.g., a sensory methodology or method for sweetener evaluation. In a particular aspect, the sensory methodology used is known as a “Flavor Profile Analysis” as has been previously described (see: B. T. Carr, S. D. Pecore, K. M. Gibes and G. E. DuBois, “Sensory Methods for Sweetener Evaluation”, Chapter 11 In Flavor Measurement, C. T. Ho and C. H. Manley, Eds., Marcel Dekker, New York, N.Y., 1993). The full set of sensory parameters that are assessed in the sensory testing method are: (a) Sweetness Intensity (which can be abbreviated in tables herein as “S”); (b) Sourness Intensity ((which can be abbreviated in tables herein as “So”); (c) Saltiness Intensity (which can be abbreviated in tables herein as “Sa”); (d) Bitterness Intensity (which can be abbreviated in tables herein as “B”); (e) Body/Mouthfeel Intensity (which can be abbreviated in tables herein as “B/MF”); (f) Astringency Intensity (which can be abbreviated in tables herein as “A”); (g) Sweetness Linger (which can be abbreviated in tables herein as “SL”); (h) Sweetness Appearance Time (which can be abbreviated in tables herein as “AT”); and (i) Sweetness Desensitization (which can be abbreviated in tables herein as “SD”). […]

Data set [5] has the same test system. The note with it: R in Sucrose Equivalents of Sweetness; C in % (w/v); linear fit; cited from earlier work.
For data set [6] the following is noted: water (Kinghorn 2002); cited from earlier work.

Values joined by “and” are separate entries in the source; they are usually repeats but may differ in a detail not shown here. Equal values may be shown once.

For `C=C1C[C@@]23CC[C@H]4[C@@](C)(CCC[C@@]4(C)C(=O)O[C@@H]4O[C@H](CO)[C@@H](O)[C@H](O)[C@H]4O)[C@@H]2CC[C@]1(O[C@@H]1O[C@H](CO)[C@@H](O)[C@H](O)[C@H]1O[C@@H]1O[C@@H](C)[C@H](O)[C@@H](O)[C@H]1O)C3` [Dulcoside A], the “sweetness potency, times higher than sucrose” value in data set [1] was 30 times.

For `N[C@@H](CCC(=O)[O-])C(=O)O.O.[Na+]` [MSG Control 1, MSG-H2O], in data set [2], the “AI (Astringency Intensity) Ave” value stood at 0.0, the “BI (Bitterness Intensity) Ave” value amounted to 3.0, the “MF (Mouthfeel Intensity) Ave” value is on record as 3.3 and the “Sal (Saltiness Intensity) Ave” value was found to be 2.0. Also, in data set [2], the “Sol (Sourness Intensity) Ave” value turned out to be 0.0 and the “UI (Umami Intensity) Ave” value is 4.7. Besides, in data set [3] (average of eight trials), the “AI (Astringency Intensity)” value turned out to be 0.0, the “BI (Bitterness Intensity)” value came out at 0.0, the “MF (Mouthfeel Intensity)” value was determined as 1.5 and the “Sal (Saltiness Intensity)” value is on record as 2.0. Further, in data set [3] (average of eight trials), the “Sol (Sourness Intensity)” value was 0.0 and the “UI (Umami Intensity)” value came out at 5.0. Also, the “MF rating, Mean” value in data set [3] (mean of eight trials) is recorded as 1.50. The “MF rating, individual trials” value in data set [3] (trials 1-8) was 1 (4×) and 2 (4×).

`N[C@@H](CCC(=O)[O-])C(=O)O.O.[Na+]` [MSG Control 2, MSG-H2O]: in data set [2], the “AI (Astringency Intensity) Ave” value was found to be 0.0, the “BI (Bitterness Intensity) Ave” value is given as 3.0, the “MF (Mouthfeel Intensity) Ave” value was determined as 3.0 and the “Sal (Saltiness Intensity) Ave” value was determined as 2.0. Also, in data set [2], the “Sol (Sourness Intensity) Ave” value worked out at 0.0 and the “UI (Umami Intensity) Ave” value worked out at 4.7.

`C=C1C[C@@]23CC[C@H]4[C@@](C)(CCC[C@@]4(C)C(=O)O[C@@H]4O[C@H](CO)[C@@H](O)[C@H](O)[C@H]4O)[C@@H]2CC[C@]1(O[C@@H]1O[C@H](CO)[C@@H](O)[C@H](O[C@@H]2O[C@H](CO)[C@@H](O)[C@H](O)[C@H]2O)[C@H]1O[C@@H]1O[C@H](CO)[C@@H](O)[C@H](O)[C@H]1O)C3` [Rebaudioside A]: the “sweetness potency, times more potent than sucrose” value in data set [1] was 350-450 times. In addition, the “SL (Sweetness Linger)” value in data set [4] was determined as 5.

Regarding `C=C1C[C@@]23CC[C@H]4[C@@](C)(CCC[C@@]4(C)C(=O)O[C@@H]4O[C@H](CO)[C@@H](O)[C@H](O)[C@H]4O)[C@@H]2CC[C@]1(O[C@@H]1O[C@H](CO)[C@@H](O)[C@H](O)[C@H]1O[C@@H]1O[C@H](CO)[C@@H](O)[C@H](O)[C@H]1O)C3` [Stevioside], in data set [1], the “sweetness potency, times higher than sucrose” value is recorded as 110-270 times.

For the compound `OC[C@H]1O[C@@](CO)(O[C@H]2O[C@H](CO)[C@@H](O)[C@H](O)[C@H]2O)[C@@H](O)[C@@H]1O` [Sucrose], in data set [5], the “C/R Function” value was “R = C”. The “SL (Sweetness Linger)” value in data set [4] stood at 0.

`C[C@H](CC[C@@H](O[C@@H]1O[C@H](CO[C@@H]2O[C@H](CO)[C@@H](O)[C@H](O)[C@H]2O)[C@@H](O)[C@H](O)[C@H]1O[C@@H]1O[C@H](CO)[C@@H](O)[C@H](O)[C@H]1O)C(C)(C)O)[C@H]1CC[C@@]2(C)[C@@H]3CC=C4[C@@H](CC[C@H](O[C@@H]5O[C@H](CO[C@@H]6O[C@H](CO)[C@@H](O)[C@H](O)[C@H]6O)[C@@H](O)[C@H](O)[C@H]5O)C4(C)C)[C@]3(C)[C@H](O)C[C@]12C` [mogroside V]: the “sweetness, times cane sugar” value in data set [1] (relative to cane sugar on a weight basis, estimated) is “approximately 250 times”.

Turning to Rebaudioside B [REBB], the water solubility entry in data set [6] is listed as “about 0.1%”. In data set [1], the “sweetness potency, times more potent than sucrose” value is recorded as 300-350 times.

On to Rebaudioside C, for which the “sweetness potency, times higher than sucrose” value in data set [1] was 40-60 times.
